One data set deals with S. Montevideo. The note with it: 500 μl AITC; cited from earlier work.
Another data set concerns native flora of soybeans. Kind of data set: Total count in non-inoculated soybean seed after disinfection. The data set is classed as cell-based. The protocol: (§1) A comparison between the activity of aqueous extract and that of hypochlorite (1,000 and 10,000 ppm) was performed in non-inoculated seed. A total count was carried out in all cases.
The next data set has as its system native flora of alfalfa. Kind of data set: Total count in non-inoculated alfalfa seed after disinfection. Type of data set: cell-based. How it is done:
as §1

In the next data set the test system is soybean seeds. Kind of data set: Toxic effect on seed germination (FIGS. 1 to 6). Type of data set: in vivo, soybean seeds (Vigna radiata L). The protocol:
Therefore, a study comparing the toxic effect of hypochlorite (1,000 and 10,000 ppm), hibiscus vegetal extract and acetic acid was performed, yielding the results shown in FIGS. 1 to 6.

A further data set concerns Salmonella sp. The note with it: submerging sprouts into 100 and 200 ppm hypochlorite solutions; cited from earlier work.
The subject of a further data set is almost all flora. The note with it: in food, within reasonable elevated limits of initial load; cited from earlier work.
For another data set, the system named is most pathogens. The note with it: in food; cited from earlier work.
The subject of the next data set is toxigenic fungus. The note with it: in food; cited from earlier work.
In the next data set the test system is E. coli. As to the kind of experiment: Diffusion technique, inhibition zone on agar. The data set is classed as cell-based, Escherichia coli. The note with it: 1:10 dilution of aqueous hibiscus extract, 10 μL on plate, 35±1° C., 24 h. The protocol:
(§2) This procedure was repeated twice. […] Finally, each strain was 10-fold diluted with ISS.
(§3) 100 μL from the first dilution of the respective pathogen culture were inoculated in AST plates. Inoculum was completely distributed on agar surface by the surface extension technique. From the dry extract, a 10% solution of hibiscus calyxes was prepared with distilled water. 10 μL aliquots of this extract were placed on each inoculated plate. Four repetitions were carried out. After the extract was absorbed by agar the plates were incubated at 35±1° C. for 24 h. Finally, the diameter of each inhibition zone was measured on the inoculated surface.

The next data set concerns Enterapathogenic E. coli. As to the kind of experiment: Diffusion technique, inhibition zone on agar. The data set is classed as cell-based, Escherichia coli. The note with it: 1:10 dilution of aqueous hibiscus extract, 10 μL on plate, 35±1° C., 24 h. How it is done: as §2, §3
For another data set, the system named is Enteroinvasive E. coli. Kind of data set: Diffusion technique, inhibition zone on agar. Type of data set: cell-based, Escherichia coli. Particulars: 1:10 dilution of aqueous hibiscus extract, 10 μL on plate, 35±1° C., 24 h. The protocol: as §2, §3
The next data set deals with Enterotoxigenic E. coli. Kind of data set: Diffusion technique, inhibition zone on agar. The data set is classed as cell-based, Escherichia coli. Particulars: 1:10 dilution of aqueous hibiscus extract, 10 μL on plate, 35±1° C., 24 h. How it is done: as §2, §3
Another data set has as its system S. aureus. As to the kind of experiment: Diffusion technique, inhibition zone on agar. Type of data set: cell-based, Staphylococcus aureus. Particulars: 1:10 dilution of aqueous hibiscus extract, 10 μL on plate, 35±1° C., 24 h. The protocol:
as §2, §3

For the next data set, the system named is V. cholerae O1. Kind of data set: Diffusion technique, inhibition zone on agar. Type of data set: cell-based, Vibrio cholerae O1. The note with it: 1:10 dilution of aqueous hibiscus extract, 10 μL on plate, 35±1° C., 24 h. How it is done:
as §2, §3

Another data set deals with S. typhimurium. Kind of data set: Diffusion technique, inhibition zone on agar. Type of data set: cell-based, Salmonella typhimurium. The note with it: 1:10 dilution of aqueous hibiscus extract, 10 μL on plate, 35±1° C., 24 h. The protocol:
as §2, §3

In a further data set the test system is S. choleraesuis. Kind of data set: Diffusion technique, inhibition zone on agar. The data set is classed as cell-based, Salmonella choleraesuis. The note with it: 1:10 dilution of aqueous hibiscus extract, 10 μL on plate, 35±1° C., 24 h. How it is done:
as §2, §3

The test system of another data set is P. aeruginosa. As to the kind of experiment: Diffusion technique, inhibition zone on agar. The data set is classed as cell-based, Pseudomonas aeruginosa. Particulars: 1:10 dilution of aqueous hibiscus extract, 10 μL on plate, 35±1° C., 24 h. The protocol:
as §2, §3

The test system of a further data set is S. flexneri. As to the kind of experiment: Diffusion technique, inhibition zone on agar. The data set is classed as cell-based, Shigella flexneri. The note with it: 1:10 dilution of aqueous hibiscus extract, 10 μL on plate, 35±1° C., 24 h. The protocol:
as §2, §3

A further data set has as its system S. sonnei. Kind of data set: Diffusion technique, inhibition zone on agar. The data set is classed as cell-based, Shigella sonnei. The note with it: 1:10 dilution of aqueous hibiscus extract, 10 μL on plate, 35±1° C., 24 h. How it is done: as §2, §3
A further data set concerns L. monocytogenes. Kind of data set: Diffusion technique, inhibition zone on agar. The data set is classed as cell-based, Listeria monocytogenes. The note with it: 1:10 dilution of aqueous hibiscus extract, 10 μL on plate, 35±1° C., 24 h. The protocol: as §2, §3
The mark [1] stands for this setting: Table 8, hypochlorite 1,000 ppm.
Setting [2] is: Table 10, hypochlorite 10,000 ppm.
[3] abbreviates: Table 9, hypochlorite 1,000 ppm.
[4] abbreviates: Table 11, hypochlorite 10,000 ppm.

In the case of `C=CCN=C=S` [AITC], the “decrease of S. Montevideo on tomato cuticle” value in the data set with S. Montevideo is listed as 8 Log.

For the compound `OCl` [Hypochlorite, sodium hypochlorite], the “% of decrease” value in the data set with native flora of soybeans (setting [1]) was 6.95%; in the data set on native flora of soybeans (setting [2]) it was 17.31%; in the data set on native flora of alfalfa (setting [3]), 6.95%; in the data set on native flora of alfalfa (setting [4]), 17.31%. The Decrease with native flora of soybeans (setting [1]) amounted to 0.18 Log10 CFU/g; in the data set on native flora of soybeans (setting [2]), 0.40 Log10 CFU/g; in the data set with native flora of alfalfa (setting [3]), 0.18 Log10 CFU/g; in the data set on native flora of alfalfa (setting [4]), 0.40 Log10 CFU/g. In addition, the Final concentration amounted to 2.41 ± 1.08 Log10 CFU/g in the data set with native flora of soybeans (Table 8, hypochlorite 1,000 ppm, initial 2.59 ± 1.19, N = 3); 1.91 ± 1.23 Log10 CFU/g in the data set on native flora of soybeans (Table 10, hypochlorite 10,000 ppm, initial 2.31 ± 0.89, N = 3); 3.41 ± 0.38 Log10 CFU/g in the data set on native flora of alfalfa (Table 9, hypochlorite 1,000 ppm, initial 3.59, N = 3); 2.9 ± 0.56 Log10 CFU/g in the data set on native flora of alfalfa (Table 11, hypochlorite 10,000 ppm, initial 3.30-3.31, N = 3). Further, the “structural damage of seeds” value in the data set on soybean seeds (FIGS. 2 and 4) is “structural damage”. Further, the “decrease of the sprout yield” value in the data set with soybean seeds (hypochlorite, FIG. 4 (10,000 ppm sodium hypochlorite solution)) was 87.63%. For the same compound, the “reduction of Salmonella sp in sprouts” value in the data set with Salmonella sp was 1 Log10.

As for `CC(=O)O` [acetic acid], in the data set with almost all flora, the “concentration that inhibits almost all flora” value was 1-2%. In the data set with most pathogens, the “concentration that acts on most pathogens” value was 0.1%. Further, the “concentration that has effects on toxigenic fungus” value with toxigenic fungus was 0.5%.

On to penicillin, for which the Inhibition diameter worked out at 13 mm in the data set with E. coli; 11 mm with Enterapathogenic E. coli; 12 mm in the data set with Enteroinvasive E. coli; 12 mm in the data set on Enterotoxigenic E. coli; 13 mm in the data set with S. aureus; 13 mm in the data set with V. cholerae O1. The Inhibition diameter in the data set with S. typhimurium was determined as 15 mm; with S. choleraesuis, 12 mm; in the data set on P. aeruginosa it was 13 mm; in the data set on S. flexneri it was 12 mm; in the data set with S. sonnei, 14 mm; with L. monocytogenes, 12 mm.

Values taken from patent publication US11229224B2, “Phytochemical compositions used as disinfectants and food preservatives” (priority 2012, dated 2022).
